# Where two headings read alike, the source gives them in different places.
# How the values were obtained:
# KHOSR2 cells [1] = experiment: In vitro cytotoxicity MTT assay, KHOSR2; details: Homo sapiens
# KHOSR2 cells [2] = experiment: Fluorescence microscopy of cellular doxorubicin uptake; format: cell-based, human; details: 3 hr incubation
# Method: For cellular uptake studies, KHOS and KHOSR2 cells were seeded at densities of 5×10^5 cells/well in 6 well plates. MDR1 siRNA was applied to a well of KHOSR2 and incubated for 48 h. Following the incubation, doxorubicin was added to each well and was incubated for additional 3 hr. After incubation, the cells were washed, suspended in fresh RPMI 1640, then visualized on a Nikon Eclipse Ti-U fluorescence microscope equipped with a SPOT RT digital camera (Diagnostic Instruments, Inc., Sterling Heights, Mich.). Fluorescence intensity and cellular localization was analyzed at a wavelength of 488 nm in triplicate in random, different fields.
# Cellular uptake studies were based on the fluorescence microscopic procedures of Venne et al. (Cancer Res. 56:3626-3629 (1996)). KHOS and KHOSR2 cells were seeded at densities of 5×10^5 cells/well in 6 well plates and incubated for 24 hr to allow cell attachment. […] After incubation, the cells were washed and resuspended with PBS and were then visualized on a Nikon Eclipse Ti-U fluorescence microscope (Nikon Corp.) equipped with a SPOT RT digital camera (Diagnostic Instruments, Inc., Sterling Heights, Mich.). Fluorescence intensity and cellular localization was analyzed at a wavelength of 488 nm in triplicate different fields at random.
# U-2OSR2 cells = experiment: In vitro cytotoxicity MTT assay, U-2OSR2; format: cell-based; details: Homo sapiens
# PARP = experiment: Cellular apoptosis assay: cleavage of PARP by Western blot; format: cell-based, human; details: KHOS and KHOSR2
# From the text: Whole-cell lysates were immunoblotted with specific antibodies to PARP (Cell Signaling Technology) and its cleavage products. Positive immunoreactions were detected using Super Signal® West Pico Chemiluminescent Substrate. Bands were semiquantified by reverse image scanning densitometry with PhotoShop 7.0 (Adobe, San Jose, Calif.). An area of the gel image that was devoid of signal was assigned to be the background value. Each band of the protein representing cleaved PARP from KHOS or KHOSR2 treated with either doxorubicin, alone, or nanoparticle-loaded with doxorubicin at various concentrations, were analyzed for the density beyond background level. To ensure that the loading of the protein was equal and differences were not being observed because of one specimen having more protein than another, the band corresponding to β-actin was determined for each protein. The density of the protein band was normalized to the β-actin band for the protein and the ratio of the cleaved PARP was normalized by dividing by the ratio of the actin corresponding to each cleaved PARP.
# U-2OS cells = experiment: In vitro cytotoxicity MTT assay, U-2OS; details: Homo sapiens, U2OS, read-out: IC50 anti-proliferative activity
smiles,measurement,setting,value
COc1cccc2c1C(=O)c1c(O)c3c(c(O)c1C2=O)C[C@@](O)(C(=O)CO)C[C@@H]3O[C@H]1C[C@H](N)[C@H](O)[C@H](C)O1 [doxorubicin],IC50,"KHOSR2 cells [1]; MDR1, read-out: IC50 of doxorubicin co-treated with MDR1 siRNA-loaded nanoparticles",0.1 µM
same,IC50,KHOSR2 cells [1]; read-out: IC50 anti-proliferative activity,3 µM
same,IC50,"KHOSR2 cells [1]; read-out: IC50 of doxorubicin, alone",10 µM
same,subcellular distribution of doxorubicin fluorescence,"KHOSR2 cells [2]; drug-resistant cell line, Example 2",primarily concentrated in the cytoplasm
same,"subcellular distribution of doxorubicin fluorescence, free doxorubicin",KHOSR2 cells [2]; drug-resistant osteosarcoma cells,primarily concentrated in the cytoplasm
same,IC50,"U-2OSR2 cells; U-2OSR2, Example 1, nanoparticles loaded with 100 nM MDR1 siRNA, read-out: IC50 for doxorubicin co-treated with the MDR1 siRNA-loaded nanoparticles",0.06 µM
same,IC50,"U-2OSR2 cells; U-2OSR2, Example 1, read-out: IC50 for doxorubicin, alone",6 µM
same,IC50,"U-2OSR2 cells; U-2OSR2, Example 2, FIG. 17D, read-out: IC50 anti-proliferative activity",6 µM
same,cleavage of PARP / apoptosis induction,PARP,"higher concentrations of doxorubicin, alone, induced apoptosis"
same,IC50,U-2OS cells,0.3 µM
